# Data published in US20150031668A1, “CHROMAN DERIVATIVES AS TRPM8 INHIBITORS” (AMGEN INC., priority 2013, published 2015).
# Target: T1, human TRPM8 (Homo sapiens, UniProt Q7Z2W7)
# T1 construct: expressed in transfected cells; host or cells: Chinese hamster ovary (CHO) cells, T-REx tetracycline-inducible expression system (Invitrogen); co-transfected with pcDNA3.1 aequorin
# Experiment: Luminescence readout assay for measuring intracellular calcium (aequorin, CHO cells expressing human TRPM8; icilin, L-menthol or cold activation)
# Format: cell-based
# Settings: CHO cells expressing human TRPM8, icilin activation (1 μM), aequorin luminescence; read-out: hTRPM8 IC50
# Outline: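 Activation was by 1 μM icilin, 100 μM L-menthol (test compound 2.5 min ahead) or cold buffer below 10° C (compound 1 min ahead). Calcium rise measured as aequorin luminescence in CHO cells with tetracycline-inducible human TRPM8.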
# T1 sequence (Q7Z2W7 whole entry): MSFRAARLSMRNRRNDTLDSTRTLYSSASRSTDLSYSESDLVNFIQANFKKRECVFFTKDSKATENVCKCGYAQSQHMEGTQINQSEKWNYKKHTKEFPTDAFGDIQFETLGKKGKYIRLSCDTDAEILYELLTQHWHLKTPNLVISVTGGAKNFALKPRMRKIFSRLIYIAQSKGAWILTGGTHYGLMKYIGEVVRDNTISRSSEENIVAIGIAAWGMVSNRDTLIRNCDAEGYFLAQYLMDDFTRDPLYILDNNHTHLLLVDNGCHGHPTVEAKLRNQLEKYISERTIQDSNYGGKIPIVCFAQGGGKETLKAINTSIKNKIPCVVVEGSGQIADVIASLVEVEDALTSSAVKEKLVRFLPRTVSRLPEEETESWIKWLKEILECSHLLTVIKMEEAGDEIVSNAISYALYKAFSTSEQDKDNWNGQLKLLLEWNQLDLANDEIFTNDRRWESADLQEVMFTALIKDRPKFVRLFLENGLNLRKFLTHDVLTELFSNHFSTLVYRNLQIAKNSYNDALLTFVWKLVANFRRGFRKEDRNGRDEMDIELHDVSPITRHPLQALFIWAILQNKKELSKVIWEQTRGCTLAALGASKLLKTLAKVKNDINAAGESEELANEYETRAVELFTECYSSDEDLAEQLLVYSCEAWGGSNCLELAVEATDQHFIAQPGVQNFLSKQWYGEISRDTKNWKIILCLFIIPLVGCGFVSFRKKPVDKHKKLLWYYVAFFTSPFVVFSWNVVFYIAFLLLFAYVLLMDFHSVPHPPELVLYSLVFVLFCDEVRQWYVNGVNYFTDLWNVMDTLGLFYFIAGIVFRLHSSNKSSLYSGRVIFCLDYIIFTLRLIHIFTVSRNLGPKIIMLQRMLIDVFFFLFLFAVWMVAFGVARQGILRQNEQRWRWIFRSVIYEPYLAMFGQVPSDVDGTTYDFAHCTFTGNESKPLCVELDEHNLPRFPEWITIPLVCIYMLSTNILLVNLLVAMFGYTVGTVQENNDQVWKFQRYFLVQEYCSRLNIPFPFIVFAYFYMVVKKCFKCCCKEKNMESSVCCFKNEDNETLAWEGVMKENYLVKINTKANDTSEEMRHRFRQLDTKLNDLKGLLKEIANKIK
row,IC50,Structure (SMILES)
1,209 nM,"O=C(O)c1cnc(C(=O)N[C@]2(c3ccc(OC(F)(F)F)c(F)c3)CCOc3cccnc32)cn1 [Example 177, (S)-5-((4-(3-fluoro-4-(trifluoromethoxy)phenyl)-3,4-dihydro-2H-pyrano[3,2-b]pyridin-4-yl)carbamoyl) pyrazine-2-carboxylic acid]"
2,72 nM,"O=C(O)c1cccc(C(=O)N[C@]2(c3ccc(OC(F)(F)F)c(F)c3)CCOc3cccnc32)c1 [Example 178, (S)-3-((4-(3-fluoro-4-(trifluoromethoxy)phenyl)-3,4-dihydro-2H-pyrano[3,2-b]pyridin-4-yl)carbamoyl) benzoic acid]"
3,305 nM,"Cn1cnc(C(=O)N[C@]2(c3ccc(OC(F)(F)F)c(F)c3)CCOc3cccnc32)c1 [Example 179, (S)-N-(4-(3-fluoro-4-(trifluoromethoxy)phenyl)-3,4-dihydro-2H-pyrano[3,2-b]pyridin-4-yl)-1-methyl-1H-imidazole-4-carboxamide]"
4,32 nM,"Cn1c(C(=O)N[C@]2(c3ccc(OC(F)(F)F)c(F)c3)CCOc3cccnc32)cnc1Br [Example 180, (S)-2-bromo-N-(4-(3-fluoro-4-(trifluoromethoxy)phenyl)-3,4-dihydro-2H-pyrano[3,2-b]pyridin-4-yl)-1-methyl-1H-imidazole-5-carboxamide]"
5,14 nM,"COC(=O)c1c(C)cc(C(=O)N[C@]2(c3ccc(OC(F)(F)F)c(F)c3)CCOc3cccnc32)cc1C [Example 181, (S)-methyl 4-((4-(3-fluoro-4-(trifluoromethoxy)phenyl)-3,4-dihydro-2H-pyrano[3,2-b]pyridin-4-yl)carbamoyl)-2,6-dimethylbenzoate]"
6,36 nM,"COC(=O)c1cc(C(=O)N[C@]2(c3ccc(OC(F)(F)F)c(F)c3)CCOc3cccnc32)ccc1OC [Example 182, (S)-methyl 5-((4-(3-fluoro-4-(trifluoromethoxy)phenyl)-3,4-dihydro-2H-pyrano[3,2-b]pyridin-4-yl)carbamoyl)-2-methoxybenzoate]"
7,21 nM,"COC(=O)c1ccc(C(=O)N[C@]2(c3ccc(Cl)c(Cl)c3)CCOc3cccnc32)nc1 [Example 183, (S)-methyl 6-((4-(3,4-dichlorophenyl)-3,4-dihydro-2H-pyrano[3,2-b]pyridin-4-yl)carbamoyl) nicotinate]"
8,50 nM,"NS(=O)(=O)c1ccc(C(=O)N[C@]2(c3ccc(OC(F)(F)F)c(F)c3)CCOc3cccnc32)cc1 [Example 184, (S)-N-(4-(3-fluoro-4-(trifluoromethoxy)phenyl)-3,4-dihydro-2H-pyrano[3,2-b]pyridin-4-yl)-sulfamoylbenzamide]"
9,89 nM,"O=C(N[C@]1(c2ccc(F)c(C(F)(F)F)c2)CCOc2cccnc21)c1ccc(=O)[nH]c1 [Example 185, (S)-N-(4-(4-fluoro-3-(trifluoromethyl)phenyl)-3,4-dihydro-2H-pyrano[3,2-b]pyridin-4-yl)-6-oxo-1,6-dihydropyridine-3-carboxamide]"
10,66 nM,"COc1c(C(=O)O)cccc1C(=O)N[C@]1(c2ccc(OC(F)(F)F)c(F)c2)CCOc2cccnc21 [Example 186, (S)-3-((4-(3-fluoro-4-(trifluoromethoxy)phenyl)-3,4-dihydro-2H-pyrano[3,2-b]pyridin-4-yl)carbamoyl)-2-methoxybenzoic acid]"
11,54 nM,"CCOC(=O)c1cc(C(=O)N[C@]2(c3ccc(OC(F)(F)F)c(F)c3)CCOc3cccnc32)c[nH]1 [Example 187, (S)-ethyl 4-((4-(3-fluoro-4-(trifluoromethoxy)phenyl)-3,4-dihydro-2H-pyrano[3,2-b]pyridin-4-yl)carbamoyl)-1H-pyrrole-2-carboxylate]"
12,15 nM,"COC(=O)c1ccc(C(=O)N[C@]2(c3ccc(OC(F)(F)F)c(F)c3)CCOc3cccnc32)cc1N [Example 188, (S)-methyl 2-amino-4-((4-(3-fluoro-4-(trifluoromethoxy)phenyl)-3,4-dihydro-2H-pyrano[3,2-b]pyridin-4-yl)carbamoyl) benzoate]"
